From ChEMBL document CHEMBL1201862, “PubChem BioAssay data set” (2004)
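1) Cells in 96-well plates. 2) Compound, 48 h, 5 concentrations. 3) Linear interpolation between surrounding doses. 4) Unreached endpoint = highest concentration. Here, GI50 denotes the concentration required for 50% inhibition of growth.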 Active and inactive are the calls of the source. No stated cut-off is given here; in the data, active = GI50 up to about 1.1 µM and inactive = higher.

What was measured:
Test in all cases: DTP human tumour cell line panel, 48 h
786-0 = tested on: 786-0
A498 = tested on: A498
A549 = tested on: A549
BT-549 = tested on: BT-549
CAKI-1 = tested on: CAKI-1
HL-60 = tested on: HL-60
HOP-62 = tested on: HOP-62
HT-29 = tested on: HT-29
KM-20L2 = tested on: KM-20L2
LXFL 529 = tested on: LXFL 529
M14 = tested on: M14
MDA-MB-435 = tested on: MDA-MB-435
NCI-H226 = tested on: NCI-H226
NCI-H23 = tested on: NCI-H23
NCI-H460 = tested on: NCI-H460
NCI/ADR-RES = tested on: NCI/ADR-RES
SF-268 = tested on: SF-268
SF-539 = tested on: SF-539
SNB-75 = tested on: SNB-75
MCF7 = tested on: MCF7

| SMILES | GI50 (786-0) | GI50 (A498) | GI50 (A549) | GI50 (BT-549) | GI50 (CAKI-1) | GI50 (HL-60) | GI50 (HOP-62) | GI50 (HT-29) | GI50 (KM-20L2) | GI50 (LXFL 529) | GI50 (M14) | GI50 (MDA-MB-435) | GI50 (NCI-H226) | GI50 (NCI-H23) | GI50 (NCI-H460) | GI50 (NCI/ADR-RES) | GI50 (SF-268) | GI50 (SF-539) | GI50 (SNB-75) | GI50 (MCF7) |
| --- | --- | --- | --- | --- | --- | --- | --- | --- | --- | --- | --- | --- | --- | --- | --- | --- | --- | --- | --- | --- |
| CN1CCN(CCCN2c3ccccc3Sc3ccc(C(F)(F)F)cc32)CC1 | 7.93 µM (inactive) | 13.6 µM (inactive) | 12.6 µM (inactive) | 14.5 µM (inactive) | 10.9 µM (inactive) | 6.14 µM (inactive) | 13.1 µM (inactive) | 2.44 µM (inactive) | 2.27 µM (inactive) | 10.2 µM (inactive) | 1.88 µM (inactive) | 3.35 µM (inactive) | 15.5 µM (inactive) | 14.4 µM (inactive) | 3.86 µM (inactive) | 11.6 µM (inactive) | 12.4 µM (inactive) | 7.28 µM (inactive) | 7.24 µM (inactive) |  |
| Cn1nnc2c(C(N)=O)ncn2c1=O [TEMOZOLOMIDE] | > 100 µM (inactive) |  | > 100 µM (inactive) | > 100 µM (inactive) | > 100 µM (inactive) | 85.5 µM (inactive) | > 100 µM (inactive) | > 100 µM (inactive) | > 100 µM (inactive) | > 100 µM (inactive) | > 100 µM (inactive) | > 100 µM (inactive) | > 100 µM (inactive) | > 100 µM (inactive) | > 100 µM (inactive) | > 100 µM (inactive) | > 100 µM (inactive) | > 100 µM (inactive) | 71 µM (inactive) | > 100 µM (inactive) |
| CCCCCCCCCCCCCCCCCCN(C)CC(COC)OP(=O)([O-])OCC[N+](C)(C)C (configuration not stated) | 0.938 µM (active) | 3.77 µM (inactive) | 1.78 µM (inactive) | 2.53 µM (inactive) | 1.33 µM (inactive) | 0.495 µM (active) | 1.72 µM (inactive) | 1.28 µM (inactive) | 2 µM (inactive) | 2.21 µM (inactive) | 4.11 µM (inactive) | 5.08 µM (inactive) | 4.32 µM (inactive) | 3.16 µM (inactive) | 0.851 µM (active) | 17.9 µM (inactive) | 1.48 µM (inactive) | 3.84 µM (inactive) | 1.01 µM (active) | 3.97 µM (inactive) |
| CC1C(=O)C(C)C(c2ccccc2)N(N=O)C1c1ccccc1 (configuration not stated) | 126 µM (inactive) | 247 µM (inactive) | 207 µM (inactive) | > 100 µM (inactive) | 184 µM (inactive) | > 724 µM (inactive) | 41.8 µM (inactive) | > 570 µM (inactive) | > 1000 µM (inactive) | > 1000 µM (inactive) | 283 µM (inactive) | 157 µM (inactive) | > 69.5 µM (inactive) | > 69 µM (inactive) | > 592 µM (inactive) | 179 µM (inactive) | 65.2 µM (inactive) | 86.5 µM (inactive) | 34 µM (inactive) | > 100 µM (inactive) |
| CCc1cccc(CC)c1NC(=S)NC(=O)c1ccc(Br)cc1 | 30.1 µM (inactive) | 33.6 µM (inactive) | 32.8 µM (inactive) |  | 29.6 µM (inactive) | 17.5 µM (inactive) | 32.4 µM (inactive) | 36.9 µM (inactive) | 47.5 µM (inactive) | 43.1 µM (inactive) | 26.8 µM (inactive) | 23 µM (inactive) | 21.5 µM (inactive) | 29.6 µM (inactive) | 17.7 µM (inactive) | 29.7 µM (inactive) | 45 µM (inactive) | 33.1 µM (inactive) | 26.4 µM (inactive) | 20.6 µM (inactive) |
| CCCCCCCCCCCCC/C=C1\C[C@H](O)COC1=O | 16 µM (inactive) | 18.9 µM (inactive) | 19.5 µM (inactive) |  | 18.9 µM (inactive) | 19.8 µM (inactive) | 16.6 µM (inactive) | 15.7 µM (inactive) | 16.9 µM (inactive) | 16.3 µM (inactive) | 15 µM (inactive) |  | 16.3 µM (inactive) | 20.4 µM (inactive) | 17.3 µM (inactive) |  | 20.4 µM (inactive) | 19.8 µM (inactive) | 15.9 µM (inactive) |  |
| COc1cc(C(C)c2cc3c(cc2OCCNC(=O)COc2cc4c(cc2C(C)c2cc(OC)c(OC)c(OC)c2)OCO4)OCO3)cc(OC)c1OC (configuration not stated) | 49.8 µM (inactive) | > 100 µM (inactive) | > 100 µM (inactive) |  | > 100 µM (inactive) | > 100 µM (inactive) | 58.7 µM (inactive) | > 100 µM (inactive) | > 100 µM (inactive) | 44.2 µM (inactive) | 85.3 µM (inactive) |  | > 100 µM (inactive) | > 100 µM (inactive) | 22.2 µM (inactive) |  | 50.4 µM (inactive) | > 100 µM (inactive) | 3.09 µM (inactive) |  |
| COc1ccc(C(=O)OC2C=COC(C)C2OC(=O)c2ccc(OC)cc2)cc1 (configuration not stated) | 28.8 µM (inactive) | > 100 µM (inactive) | 48.1 µM (inactive) |  | 28.8 µM (inactive) | 10.6 µM (inactive) | > 83.6 µM (inactive) | 22.2 µM (inactive) | 27.6 µM (inactive) | 14.5 µM (inactive) | 16.6 µM (inactive) |  | 38.8 µM (inactive) | 16.4 µM (inactive) | 40.7 µM (inactive) |  | 15.8 µM (inactive) | 18 µM (inactive) | 12.4 µM (inactive) |  |
| CC1OC(n2ccc3ccc([N+](=O)[O-])cc32)C(O)C(O)C1O (configuration not stated) | > 100 µM (inactive) | > 100 µM (inactive) | > 100 µM (inactive) |  | > 100 µM (inactive) | > 100 µM (inactive) | > 100 µM (inactive) | > 100 µM (inactive) | > 100 µM (inactive) | > 100 µM (inactive) | > 100 µM (inactive) |  | > 100 µM (inactive) | > 100 µM (inactive) | > 100 µM (inactive) |  | > 100 µM (inactive) | > 100 µM (inactive) | > 100 µM (inactive) |  |
| N#CC(C#N)=C(N)/C(C#N)=C/c1ccc(O)c(O)c1 | > 91.8 µM (inactive) | > 100 µM (inactive) | > 100 µM (inactive) | > 100 µM (inactive) | > 100 µM (inactive) | 22.6 µM (inactive) | 15.5 µM (inactive) | > 92.9 µM (inactive) | 25.1 µM (inactive) | 40.7 µM (inactive) | > 100 µM (inactive) | 87.1 µM (inactive) | 46.3 µM (inactive) | > 100 µM (inactive) | 50.5 µM (inactive) | 41.5 µM (inactive) | > 83.2 µM (inactive) | > 100 µM (inactive) | 74.8 µM (inactive) | 75.2 µM (inactive) |
| CC(=O)N(C)c1ccc2c(ccc[n+]2[O-])c1[N+](=O)[O-] | > 100 µM (inactive) | > 100 µM (inactive) | > 100 µM (inactive) |  | > 100 µM (inactive) | > 100 µM (inactive) | > 100 µM (inactive) | > 100 µM (inactive) | > 100 µM (inactive) | > 100 µM (inactive) | > 100 µM (inactive) |  | > 100 µM (inactive) | > 100 µM (inactive) | > 100 µM (inactive) |  | > 100 µM (inactive) | > 100 µM (inactive) | > 100 µM (inactive) |  |
| O=[N+]([O-])c1nccn1CC(O)c1ccccc1 (configuration not stated) | > 100 µM (inactive) | > 100 µM (inactive) | > 100 µM (inactive) |  | > 100 µM (inactive) | > 100 µM (inactive) | > 100 µM (inactive) | > 100 µM (inactive) | > 100 µM (inactive) | > 100 µM (inactive) | > 100 µM (inactive) |  | > 100 µM (inactive) | > 100 µM (inactive) | > 100 µM (inactive) |  | > 100 µM (inactive) | > 100 µM (inactive) | > 100 µM (inactive) |  |
| O=C(O)CC/C(=N\Nc1nsc2ccccc12)c1ccc(Cl)cc1 | 17.8 µM (inactive) | 37 µM (inactive) | > 49.1 µM (inactive) | 25.1 µM (inactive) | 23.3 µM (inactive) | 23.6 µM (inactive) | 23.5 µM (inactive) | 29.8 µM (inactive) | 41.1 µM (inactive) | 19.4 µM (inactive) | 25.1 µM (inactive) | 27.5 µM (inactive) | > 100 µM (inactive) | 21.2 µM (inactive) | 28.4 µM (inactive) |  | 21.9 µM (inactive) | 31.5 µM (inactive) | 28.5 µM (inactive) | 5.75 µM (inactive) |
| COc1c(C=O)c2c(c(OC)c1OC)-c1ccc(OC)c(=O)cc1[C@@H](NC(C)=O)CC2 | 0.132 µM (active) | 0.347 µM (active) | 0.437 µM (active) | 21.1 µM (inactive) | 0.703 µM (active) | < 0.01 µM (active) | 0.36 µM (active) | 0.0255 µM (active) | 0.0364 µM (active) | 0.0191 µM (active) | 0.051 µM (active) | < 0.01 µM (active) | 0.583 µM (active) | 0.034 µM (active) | 0.0771 µM (active) |  | 0.0444 µM (active) | 0.0237 µM (active) | 0.0254 µM (active) | < 0.01 µM (active) |
| C[C@]12CCC3[C@@H](CC[C@@H]4c5nonc5CC[C@]34C)C1CCC(=O)N2 (some centres not stated) | > 100 µM (inactive) | > 100 µM (inactive) | > 100 µM (inactive) |  | > 100 µM (inactive) | 93.8 µM (inactive) | > 100 µM (inactive) | > 100 µM (inactive) | > 100 µM (inactive) | > 100 µM (inactive) | > 100 µM (inactive) |  | > 100 µM (inactive) | > 100 µM (inactive) | > 100 µM (inactive) |  | > 100 µM (inactive) | > 100 µM (inactive) | 55 µM (inactive) |  |
